# Results: US20110224297A1, “Methods of administering prostratin and structural analogs thereof” (priority 2008, published 2011)
# Key:
# [1] = test system: resting CD4+ T cells derived from HIV positive patients; assay: Induction of HIV-1 expression in resting CD4+ T cells from HIV positive patients on HAART (p24, co-culture); format: cell-based, human; conditions: VPA at 1 mM added to cultures treated with prostratin
# Procedure: The ability of prostratin to induce HIV-1 expression in cultures of highly purified resting CD4+ T cells derived from six HIV positive patients on HAART therapy with undetectable plasma viral load (<50 copies/ml) and CD4 cell counts above 350 cells/mm^3 was evaluated. PBMCs were separated using Ficol Hypaque gradient and resting CD4+ T cells were purified using commercially available CD4+ T cell isolation kit (Miltenyi Biotec) Immediately after purification, resting CD4+ T cells were treated for 3 days with two antiretrovirals to which the patient had not previously been exposed. Antiretrovirals were used at concentrations 10 times the 50% inhibitory concentration for wild-type HIV-1 to ensure elimination of any actively replicating virus. Three days after in vitro incubation with antiretrovirals, cells were washed and incubated for 5 h, 24 h, or 48 h with prostratin (50-500 ng/ml), in the absence or presence of 1 mM valproic acid (sodium salt, SIGMA), 10 μg/ml PHA (SIGMA), 50 U IL-2/ml (AIDS depository of reagents, NIH), or in the absence of drugs. At the end of each incubation period, cells were co-cultured with CD8-depleted PBMCs from healthy donors. P24 was measured at days 0, 4, 7, 14, 21, 28, 35 and 42 days.
# [2] = In vitro metabolism in rat primary hepatocytes; format: in vitro ADME
# Procedure: (§1) ^3H-Prostratin was incubated in hepatocyte preparations with 0.75×10^6 hepatocytes/ml for 0, 30, 60, and 120 minutes. Hepatocytes were suspended in William's E medium and incubated with 1 μM or 4 μM ^3H-Prostratin at 37° C. in an atmosphere of 4.7-4.8% CO2. Hepatocyte incubations were terminated by addition of acetonitrile. Incubations were profiled for ^3H-Prostratin and metabolites by high performance liquid chromatography using a radioactivity detector.
# (§2) Metabolites were subsequently analyzed by liquid chromatography/tandem mass spectrometry (LC/MS/MS) for putative identification. Seven predominant metabolites, identified as M1 through M6 according to their chromatographic order of elution, were detected among both genders of the three species, including two co-eluting metabolites labeled as M3A or M3B. Among the seven metabolites, five were putatively identified by LC/MS/MS, while structures could not be proposed for M2 and M3B.
# [3] = Extent of metabolism by hepatocytes, rank order across species and genders; format: in vitro ADME, rat, monkey, human; conditions: 1 μM and 4 μM; up to 120 minutes
# Procedure: as §1, §2
# [4] = In vitro metabolism in human primary hepatocytes; format: in vitro ADME
# Procedure: as §1, §2
# [5] = Quantitative whole body autoradiography of rats following oral administration; format: in vivo, Long Evans rats
# Procedure: The absorption and distribution of ^3H-Prostratin were studied in male and female rats following a single oral administration at 0.2 mg/kg. Four Long Evans male and four Long Evans female rats, after an overnight fast, each received a single oral administration of ^3H-Prostratin as a solution in saline containing <1% of ethanol at a target dose of 0.2 mg/kg. For both males and females, one animal per time point per sex was sacrificed at 1, 4, 8, and 24 hours postdose and carcasses were prepared for whole-body autoradiography (WBA). Blood, plasma, and cellular fraction were analyzed by using liquid scintillation counting (LSC).
# [6] = In vitro metabolism in monkey primary hepatocytes; format: in vitro ADME; conditions: monkey hepatocytes of both genders
# Procedure: as §1, §2
# [7] = female rats, single oral 0.2 mg/kg
# [8] = male rats, single oral 0.2 mg/kg
SMILES,enhancement of HIV-1 replication beyond the prostratin effect [1],number of metabolites detected ([2]; female rat hepatocytes),number of metabolites detected ([2]; male rat hepatocytes),gender difference in metabolism ([2]; male rat versus female rat hepatocytes),"extent of metabolism by hepatocytes, rank order [3]",number of metabolites produced ([4]; both genders of human hepatocytes),extent of metabolism in human compared with male monkeys ([4]; human hepatocytes),unique human metabolites ([4]; human hepatocytes),"maximum blood concentration of radioactivity [5, 7]","maximum plasma concentration of radioactivity [5, 7]","time of maximum blood and plasma concentrations of radioactivity [5, 7] [hour postdose]",gender-related difference in tissue distribution of radioactivity ([5]; female versus male rats),"tissue distribution of radioactivity ([5]; male and female rats, single oral 0.2 mg/kg)","maximum blood concentration of radioactivity [5, 8]","maximum plasma concentration of radioactivity [5, 8]","time of maximum blood concentration of radioactivity [5, 8] [hours postdose]","time of maximum plasma concentration of radioactivity [5, 8] [hours postdose]",number of metabolites produced [6]
"CCCC(CCC)C(=O)O [VPA, valproic acid, reference compound]",did not significantly enhance,,,,,,,,,,,,,,,,,
CC(=O)O[C@@]12C[C@@H](C)[C@@]3(O)[C@@H](C=C(CO)C[C@]4(O)C(=O)C(C)=C[C@@H]34)[C@@H]1C2(C)C [^3H-Prostratin],,two,Six,more rapid metabolism,male monkey>male rat>>female monkey≈male human≈female human>female rat,Five,considerably lower,no unique human metabolites,59.7 ng equivalents ^3H-Prostratin/g,63.7 ng equivalents ^3H-Prostratin/g,1,distributed more widely in female tissues than male tissues,Most of the radioactivity was found in the gastrointestinal (GI) tract,30.5 ng equivalents ^3H-Prostratin/g,53.5 ng equivalents ^3H-Prostratin/g,1,4,five
